Experiment: water solubility of free drug and dendrimer-drug conjugates

CCCCCCC(C)(C)c1cc(OC)c([C@@H]2C=C(CO)[C@@H]3C[C@H]2C3(C)C)c(OC)c1 [Hu308]
Water Solubility Free drug* (free, unconjugated drug of GD-Hu308 (Table 4)): <100 µg/mL
solubility (water): < 100 µg/mL
